{"source": "patent US20230123148A1", "about": "“TARGETING QUORUM-SENSING PEPTIDES FOR DIAGNOSIS, TREATMENT AND/OR PREVENTION OF COLORECTAL CANCER METASTASIS” (UNIVERSITEIT GENT, priority 2020, published 2023)", "key": {"[1]": {"biological_target": "T1, CXCR4 receptor (Homo sapiens, UniProt P61073)", "T1 construct": "endogenous in cells; host or cells: luciferase transfected HCT-8/E11 cells", "T1 sequence (P61073 whole entry)": "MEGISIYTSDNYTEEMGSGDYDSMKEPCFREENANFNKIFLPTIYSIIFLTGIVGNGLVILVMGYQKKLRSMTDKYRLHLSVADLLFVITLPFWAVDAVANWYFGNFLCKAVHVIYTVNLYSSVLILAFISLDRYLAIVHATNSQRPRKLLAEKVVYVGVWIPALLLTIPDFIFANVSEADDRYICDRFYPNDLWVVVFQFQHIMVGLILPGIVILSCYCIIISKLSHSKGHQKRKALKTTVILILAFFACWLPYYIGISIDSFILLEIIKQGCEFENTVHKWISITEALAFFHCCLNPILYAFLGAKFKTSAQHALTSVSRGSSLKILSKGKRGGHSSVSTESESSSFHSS", "assay": "Antagonism of the E-cadherin reducing effect of QSP76 (Western blot, HCT-8 cells)", "format": "cell-based", "conditions": "for relative E-cadherin expression: PBS = 100%", "method": "Western Blot analyses. 1×10^6 luciferase transfected HCT-8/E11 cells were seeded in each well of a 6-well plate. […] After 24 hours, cells were detached from the surface and lysed with Thermo Scientific RIPA-buffer. The protein concentration was then determined using the modified Lowry protein assay kit, according to the manufacturer's instructions. All samples were diluted to the same concentration (i.e. 4 μg/μL) using water and diluted 1:1 using 2× Laemmli buffer. Next, the samples were boiled for 5 min at 95° C. for denaturation, after which centrifugation for 5 min at 16,000 g was performed; the supernatant was then used for Western blot analyses. Therefore, proteins (20 μg) were separated using a Bio-Rad Any kD gel (SDS-PAGE) and transferred to a PVDF membrane. Before the membranes were incubated with antibodies, non-specific binding sites were blocked using 5% skimmed milk solution (1 hour). Western blot was performed using an anti-E-cadherin (1/1000) antibody and incubated overnight at 4° C. Signal intensity was normalized against the total protein content in the lanes. Anti-rabbit-HRP antibody was used for detection (1/2000) (1 hour). Finally, the substrate (5 min) was added and the results were analyzed using the Bio-Rad ChemiDoc EZ imager and Image Lab software. TBS buffer with 0.05% Tween 20 was used for washing between the different steps."}, "[2]": {"tested_on": "luciferase transfected HCT-8/E11 cells", "assay": "Orthotopic colorectal cancer mouse model", "format": "in vivo, female athymic nude mice (Swiss nu/nu)", "method": "Orthotopic colorectal cancer mouse model. All in vivo experiments were performed according to the Ethical Committee principles of laboratory animal welfare and approved by our institute (Ghent University, Faculty of Medicine and Health Sciences, approval number ECD 17-90). Mice were maintained in a sterile environment with light, humidity and temperature control (light-dark cycle with light from 7:00 h to 17:00 h, temperature 21-25° C. and humidity 45-65%). Before the experiment, mice were allowed to acclimatize for a minimum of seven days.\nSix-weeks old female athymic nude mice (Swiss nu/nu) were anesthetized and a small midline laparotomy executed to localize the caecum. The caecum was then gently exteriorized and luciferase transfected HCT-8/E11 cells (1×10^6 cells) in a volume of 20 μL serum-free DMEM medium with matrigel (1:1) injected into the caecal wall. Cells were previously treated with EntF* (10 nM, 100 nM or 1 μM), Phr0662 (100 nM) or with the vehicle (PBS) or positive control (Transforming Growth Factor α (TGFα), 0.1 μg mL^−1) solution for 5 days before they were implanted in the mice. The caecum was then carefully returned to the abdominal cavity and the laparotomy closed in two layers by sutures of PDS 6/0. Starting from the day after tumour cell injection, mice were daily treated by i.p. injection with vehicle (PBS, n=15), EntF* (10 nmol kg^−1, n=12; 100 nmol kg^−1, n=18; 1 μmol kg^−1, n=8), Phr0662 (100 nmol kg^−1, n=5) or positive control (Epidermal Growth Factor (EGF), 100 μg kg^−1, n=18) for 6 weeks. Once a week, mice were investigated for tumour growth and metastases using bioluminescent imaging with the IVIS Lumina II (Perkin Elmer, Belgium) after i.p. injection with 200 μL luciferin (150 mg kg^−1). After 6 weeks, mice were euthanized using cervical dislocation, followed by macroscopic evaluation of the liver, diaphragm, lungs, caecum, duodenum and peritoneum for the presence of tumour nodules. Liver and lung tissues were then fixed in formalin during 24 h and stored in 70% ethanol for max. 3 days before embedding in paraffin. Afterwards, a haematoxylin & eosin (H&E) staining was performed on 8 μm sections and 3 sections were visualized per mouse using microscopy. The slides of all tumour-bearing mice were scored by two blinded, independent investigators using a scoring system. In the case of a difference in scoring, the slide was scored again by a third blinded, independent investigator for consensus.\nStatistical analyses. The Kolmogorov-Smirnov test was used to assess if data obtained were normally distributed. For sample sizes of n<10, non-parametric tests (Mann-Whitney U test) were performed directly. Slope comparison was based on linear regression analysis. Bootstrapped medians and Hedges G-values were used to calculate the effect size."}, "[3]": {"tested_on": "HCT-8 CRC cells", "conditions": "cited from earlier work"}, "[4]": {"conditions": "after 6 weeks daily i.p. treatment"}}}
{"substance": "ANLVECVFSLFKKCN (QSP76S1A) [EntF* antagonist]", "values": [{"measurement": "antagonistic effect on the in vitro pro-metastatic (E-cadherin reducing) effect of QSP76", "setting": "[1]; HCT-8 cells", "result": "reduces"}, {"measurement": "relative E-cadherin expression", "setting": "[1]; mixture of antagonist with 5 μM EntF* (QSP76), HCT-8 cells", "result": 91.8, "unit": "%"}, {"measurement": "Cohen's d effect size of normalisation in E-cadherin expression", "setting": "[1]; mixture with QSP76 versus QSP76 alone", "result": 0.77}]}
{"substance": "ERNNT [Phr0662]", "values": [{"measurement": "in vivo metastasis-promoting effect", "setting": "[2]; daily i.p. for 6 weeks", "result": "no in vivo metastasis-promoting effects"}, {"measurement": "promotion of angiogenesis and/or tumour cell invasion in vitro", "setting": "[3]", "result": "promote in vitro cell invasion"}]}
{"substance": "Epidermal Growth Factor [EGF]", "values": [{"measurement": "bioluminescence, Bootstrapped median difference (effect size, increase vs PBS)", "setting": "[2]; [4]", "result": 316, "unit": "%"}, {"measurement": "bioluminescence, Hedges' g value (vs PBS)", "setting": "[2]; [4]", "result": 0.7}, {"measurement": "bioluminescence, Median", "setting": "[2]; [4]", "result": 630}, {"measurement": "increase in the number of nodules on the caecum compared to PBS", "setting": "[2]; after 6 weeks treatment", "result": 4.5, "unit": "fold"}, {"measurement": "number of nodules on the caecum, Hedges' g value (vs PBS)", "setting": "[2]; after 6 weeks treatment", "result": 0.8}, {"measurement": "number of nodules on the caecum, Median", "setting": "[2]; after 6 weeks treatment", "result": 14}, {"measurement": "number of nodules on the caecum, Bootstrapped median difference", "setting": "[2]; after 6 weeks treatment, vs PBS", "result": 9}, {"measurement": "tumour growth (luciferase activity, bioluminescent imaging) compared to vehicle", "setting": "[2]; weekly imaging during 6 weeks, linear regression slope comparison", "result": "significant increase of tumour growth"}]}
{"substance": "SNLVECVFSLFKKCN (SNLVECVFSLKKCN; EntF metabolite) [EntF*]", "values": [{"measurement": "relative E-cadherin expression", "setting": "[1]; QSP76 alone, HCT-8 cells", "result": 66.0, "unit": "%"}]}
